Series [1] has as its system P. falciparum 3D7 parasites. The series can be described thus: P. falciparum 3D7 asexual stage LDH assay (72 h). The series is classed as cell-based, Plasmodium falciparum. Conditions: Plasmodium falciparum, 3D7 / DSM 265, parent 3D7 for resistant populations; LDH assay, 3 experiments (SYBR-green for DSM265); read-out: Pf 3D7 EC50 (SD). The method, boiled down:
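Asexual P. falciparum 3D7 parasites were grown for 72 h over a 10-point, 3-fold series starting at 1 μM in 0.1% DMSO, with 100 nM chloroquine as negative growth control. After freeze-thaw, parasite LDH was read at 650 nm, and EC50 came from a variable-slope sigmoidal fit.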

Series [2] deals with W466-resistant populations. The series can be described thus: 72 h growth assay against W466-resistant populations. The series is classed as cell-based, Plasmodium falciparum. The conditions noted are these: Plasmodium falciparum. An excerpt: To determine the mechanism of action of the cyclopropyl carboxamide series, a forward genetic resistance study was undertaken on the two hit compounds W466 (1) and W499 (2).
The structures of W466 (1) and W499 (2) are slightly different although they appear to belong to the same structural class. To confirm if W466 (1) and W499 (2) may have the same molecular target, W466 (1) and W499 (2) were each evaluated for cross resistance against their respective resistant populations from the pulsed forward genetic study (Fig. 2).

Series [3] concerns W499-resistant populations. Kind of series: microbe, parasite or virus in culture. The class given is cell-based, Plasmodium falciparum. The conditions noted are these: for EC50: Plasmodium falciparum. An excerpt:
To confirm if W466 (1) and W499 (2) may have the same molecular target, W466 (1) and W499 (2) were each evaluated for cross resistance against their respective resistant populations from the pulsed forward genetic study (Fig. 2).

Series [4] relates to mitochondrial ETC. The series can be described thus: P. falciparum oxygen consumption rate (OCR) assay (Seahorse XFe96). The series is classed as cell-based, Plasmodium falciparum. The conditions noted are these: compounds 5 μM. The protocol:
To provide further evidence to support the cyclopropyl carboxamide series targeting cyt b, an oxygen consumption rate (OCR) assay was performed using a Seahorse XFe96 Flux Analyzer. The primary role of the mitochondria ETC is to produce ATP oxidative phosphorylation, and thus the oxygen consumption directly quantifies mitochondrial ETC activity. In this assay, malate, which is a substrate of malate quinone dehydrogenase (MQD), was added to provide a base line of oxygen consumption at approximately 50 pmol/min (Fig. 4). […] Finally, NaN3 was added to inhibit complex IV to bring the OCR back to basal levels.
Fig. 4 P. falciparum oxygen consumption rate (OCR) assay. Data represent the means and SDs of 3 technical replicates. Time points and reagent injections were as follows, 1. First 5 timepoints measured the basal level of malate-dependent OCR; 2. Compounds (5 μM) were injected independently (indicated by arrow), and OCR measured for 8-timepoints; 3. TMPD (a cytochrome c electron donor) was injected, and OCR measured for 5 time points; 4. NaN3 (a complex IV inhibitor) was then added, and OCR measured for 5 time points.
ETC Biosensor Assay. This assay was performed as previously described. Briefly, 3 × 10^8 trophozoite infected RBCs were purified using the SuperMACS II separator (Miltenyi Biotec, Germany). The trophozoite-stage parasites were released from erythrocytes by treating them with 0.05 % (w/v) pre-warmed saponin in phosphate-buffered saline (PBS) at 37 °C for 3 min. The cells were washed with pre-warmed PBS, three times. […] The cells were measured for oxygen consumption rate (OCR) using Seahorse XFe96 flux analyzer (Agilent). The OCR was assessed for five cycles of 20 s mixing, 1 min waiting, 2.5 min measuring to establish baseline OCR before any substrate injections, for eight cycles of 20 s mixing, 1 min waiting followed by 2.5 min measuring after inhibitor injection from port A and for five cycles of 20 s mixing 1 min waiting, 2.5 min measuring after TMPD, and NaN3, injections.

The test system of series [5] is ring-stage P. falciparum parasites. Kind of series: Asexual stage of arrest assay. The class given is cell-based, Plasmodium falciparum. The conditions noted are these: 10 times EC50, sampled every 12 h for 48 h. The protocol:
Characterization of asexual stage phenotype and rate of asexual kill is important in determining the downstream application and TCP of an antimalarial series. […] Parasites were sampled every 12 h for 48 h, to prepare Giemsa-stained blood smears for analysis by microscopy. Parasitemia of each sample was measured by flow cytometry using SYBR-Green DNA staining.
Asexual Stage of Arrest Assay. This assay was conducted as previously described.

In series [6] the test system is Pf Dd2 parental line. The conditions noted are these: known drug controls; ref Nguyen, Dans et al. [8]; cited from earlier work.
Series [7] has as its system Pf SB1-A6 strain. Also on record: method as in Nguyen, Dans et al. [8]. The conditions noted are these: known drug controls; ref Nguyen, Dans et al. [8]; cited from earlier work.
Series [8] deals with Pf Dd2 expressing ScDHODH. Also noted: method as in Nguyen, Dans et al. [8]. Conditions: known drug controls; ref Nguyen, Dans et al. [8]; cited from earlier work.
Series [9] deals with Pf Dd2 strain with an I22L mutation in the Qi site cyt b. Also on record: method as in Nguyen, Dans et al. [8]. The conditions noted are these: known drug controls; ref Nguyen, Dans et al. [8]; read-out: Pf cyt b mutant strains EC50 Dd2 cyt b(I22L); cited from earlier work.
The test system of series [10] is Pf 3D7 3-oxadiazole quinolone resistant strain with a V259L mutation in the Qo site of cyt b. Also on record: method as in Nguyen, Dans et al. [8]. Conditions: known drug controls; ref Nguyen, Dans et al. [8]; read-out: Pf cyt b mutant strains EC50 3D7 cyt b(V259L); cited from earlier work.
Series [11] has as its system human HepG2 cell line. Kind of series: Human HepG2 growth inhibition assay (Cell TitreGlo, 48 h). Conditions: HepG2 cell growth inhibition over 48 h. The series is classed as cell-based. The method, boiled down:
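HepG2 cells (1000/well, DMEM + 10% FCS) exposed 48 h at 37 °C, 5% CO2 to compound from 50 μM top concentration in 1:2 dilutions, 0.5% DMSO final. Viability read by Cell Titer Glo, normalised to DMSO and 10 μM bortezomib; EC50 by four-parameter variable-slope fit.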

Where [12] appears, read: read-out: W466-resistant populations EC50 (SD) #1.
[13] abbreviates: read-out: W466-resistant populations EC50 (SD) #2.
Setting [14] is: read-out: W466-resistant populations EC50 (SD) #3.
The mark [15] stands for this setting: DSM265, read-out: W499-resistant populations EC50 (SD) #2.
[16] abbreviates: DSM265, read-out: W499-resistant populations EC50 (SD) #3.

Results on four compounds are retold here after paper PMC11609934, “Exploration and characterization of the antimalarial activity of cyclopropyl carboxamides that target the mitochondrial protein, cytochrome b” (European Journal of Medicinal Chemistry, 2024).

Read-outs that look alike come from different tables or passages of the source. Some results are limits rather than exact numbers.

A word on the EC50: it is the midpoint of the concentration-response curve. A word on the CC50: it is the concentration giving 50% cytotoxicity.

For the compound `O=C1C(O)=C([C@H]2CC[C@H](c3ccc(Cl)cc3)CC2)C(=O)c2ccccc21` [ATQ, atovaquone], the concentration giving a half-maximal response (EC50) came out at 0.001 µM in series [1]; 0.001 µM in series [2] (read-out: EC50 against W466-resistant parasites); 0.002 µM in series [2] (setting [12]); 0.001 µM in series [2] (setting [13]); 0.001 µM in series [2] (setting [14]); 0.004 µM in series [3] (setting [15]). In addition, the EC50 was 0.003 µM in series [3] (setting [16]), 0.001 µM in series [6], over 10 µM in series [7] and over 10 µM in [8]. For the same compound, in series [4], the “effect on malate-dependent oxygen consumption rate (OCR)” value was “an OCR reduction was detected”. Further, the “asexual stage of arrest” value in series [5] is “arrest at the trophozoite stage”.
As for `Cc1cc(Nc2ccc(S(F)(F)(F)(F)F)cc2)n2nc(C(C)(F)F)nc2n1` [DSM265], the EC50 is 0.053 µM in series [1]; 0.019 µM in series [2] (setting [12]); 0.013 µM in series [2] (setting [13]); 0.013 µM in series [2] (setting [14]); over 1 µM in series [3] (setting [15]); over 1 µM in series [3] (setting [16]). Besides, the EC50 in series [3] (read-out: EC50 against W499-resistant parasites) is over 1 µM; in [6], 0.024 µM; in series [7], over 10 µM; in series [8] it was over 10 µM. In series [3], the “fold shift in EC50 against W499-resistant populations compared to wildtype 3D7” value is reported as over 10 fold. In series [4], the “effect on malate-dependent oxygen consumption rate (OCR)” value was “didn't change the basal OCR”.
Turning to `COc1cc2[nH]c(C)c(-c3ccc(Oc4ccc(OC(F)(F)F)cc4)cc3)c(=O)c2cc1Cl` [ELQ300], the EC50 in series [1] amounted to 0.013 µM; in series [2] (setting [12]) it was 0.036 µM; in series [2] (setting [13]) it was 0.018 µM; in series [2] (setting [14]), 0.02 µM; in series [3] (setting [15]), 0.053 µM; in series [3] (setting [16]) it was 0.045 µM. In addition, the EC50 in [6] was 0.021 µM; in [9] it was 0.176 µM; in series [10] it was 0.012 µM. Also, in series [3], the “fold shift in EC50 against W499-resistant populations compared to wildtype 3D7” value is 2 fold.
With “N-Cyclopropyl-4-((cyclopropyl(3,4-dimethylbenzyl)amino)methyl)benzamide [Compound 79]”, in series [11], the CC50 is over 40 µM.
